Values of other authors as cited in paper PMC4195943, “A novel small-molecule MRCK inhibitor blocks cancer cell invasion” (Cell Communication and Signaling : CCS, 2014).

How the values were obtained:
Protein Kinase C = target: Protein Kinase C; set-up: method as in PMID 2244923; details: read-out: in vitro IC50, Protein Kinase C; cited from earlier work
MRCKα = MRCKα (Homo sapiens, UniProt Q5VT25); set-up: method as in PMID 21457715; details: read-out: in vitro IC50, MRCKα; cited from earlier work
Chain of MRCKα (Q5VT25 whole entry): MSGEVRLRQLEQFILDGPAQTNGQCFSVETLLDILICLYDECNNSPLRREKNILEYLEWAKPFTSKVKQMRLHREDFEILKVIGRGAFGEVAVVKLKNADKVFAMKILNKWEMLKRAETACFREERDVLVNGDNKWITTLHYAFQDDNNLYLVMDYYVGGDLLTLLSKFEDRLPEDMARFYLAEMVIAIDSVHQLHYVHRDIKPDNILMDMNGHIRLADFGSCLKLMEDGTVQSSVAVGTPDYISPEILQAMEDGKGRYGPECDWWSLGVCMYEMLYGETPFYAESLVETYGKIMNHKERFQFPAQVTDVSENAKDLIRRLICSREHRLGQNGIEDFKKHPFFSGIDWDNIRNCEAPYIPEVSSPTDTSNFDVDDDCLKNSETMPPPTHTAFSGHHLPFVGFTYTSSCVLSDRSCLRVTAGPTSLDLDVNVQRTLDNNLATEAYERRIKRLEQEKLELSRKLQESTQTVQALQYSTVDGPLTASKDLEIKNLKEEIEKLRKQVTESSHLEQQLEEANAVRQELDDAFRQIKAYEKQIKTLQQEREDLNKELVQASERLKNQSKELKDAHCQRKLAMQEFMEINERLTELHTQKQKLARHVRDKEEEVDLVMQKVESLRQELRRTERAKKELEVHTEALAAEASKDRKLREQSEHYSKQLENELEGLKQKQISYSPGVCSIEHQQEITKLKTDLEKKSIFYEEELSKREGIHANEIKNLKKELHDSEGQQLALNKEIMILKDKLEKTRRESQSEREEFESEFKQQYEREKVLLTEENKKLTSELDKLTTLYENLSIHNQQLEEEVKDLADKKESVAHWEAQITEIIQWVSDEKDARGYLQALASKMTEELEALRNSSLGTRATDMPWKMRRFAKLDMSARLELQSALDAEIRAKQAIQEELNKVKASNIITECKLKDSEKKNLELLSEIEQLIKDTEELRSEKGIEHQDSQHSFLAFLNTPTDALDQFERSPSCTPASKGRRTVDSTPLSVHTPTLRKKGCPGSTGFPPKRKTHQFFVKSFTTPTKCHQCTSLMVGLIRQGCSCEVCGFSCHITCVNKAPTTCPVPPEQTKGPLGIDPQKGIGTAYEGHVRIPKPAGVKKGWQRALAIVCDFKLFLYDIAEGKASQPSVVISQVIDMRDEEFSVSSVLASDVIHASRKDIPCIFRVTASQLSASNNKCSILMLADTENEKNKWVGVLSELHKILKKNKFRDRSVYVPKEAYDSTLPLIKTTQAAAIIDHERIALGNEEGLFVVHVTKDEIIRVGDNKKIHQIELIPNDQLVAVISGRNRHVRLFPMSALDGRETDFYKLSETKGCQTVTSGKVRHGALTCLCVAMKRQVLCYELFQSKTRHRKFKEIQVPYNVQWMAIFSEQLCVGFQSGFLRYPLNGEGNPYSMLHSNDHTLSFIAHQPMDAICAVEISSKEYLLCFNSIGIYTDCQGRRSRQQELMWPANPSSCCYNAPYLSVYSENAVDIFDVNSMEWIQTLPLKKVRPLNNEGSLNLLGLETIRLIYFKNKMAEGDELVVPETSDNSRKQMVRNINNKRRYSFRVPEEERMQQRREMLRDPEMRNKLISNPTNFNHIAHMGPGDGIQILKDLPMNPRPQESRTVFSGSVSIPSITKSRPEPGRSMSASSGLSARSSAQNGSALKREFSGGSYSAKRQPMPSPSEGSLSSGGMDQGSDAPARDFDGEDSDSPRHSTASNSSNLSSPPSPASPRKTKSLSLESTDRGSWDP

## COc1ccc2c(c[n+](C)c3c4cc5c(cc4ccc23)OCO5)c1OC [Chelerythrine]
Protein Kinase C
  IC50: 0.66 µM
MRCKα
  IC50: 1.77 µM
